Molecules are shown by their SMILES.

Series [1] can be described thus: Stability of the compound in pH 7 by UV-vis spectroscopy. It counts as physicochemical. Conditions: buffer; call rule not given here.
Series [2] can be described thus: Inhibition of almond beta-glucosidase. Further details: species or system Prunus dulcis.
The test system of another series is Coffea arabica. The series can be described thus: Potency index, ratio of miglitol Kd to test compound Kd for inhibition of Green coffee beans alpha-galactosidase.
The nature of series [3]: Toxicity in C57BL-6J mouse assessed as kidney pathological change at 2 mg/kg, po measured after 10 days by hematoxylin and eosin staining analysis. It counts as organism-based. Conditions: in vivo, 240 h, time 10 day.
Series [4] relates to Mus musculus. The series is described as follows: Hypoglycemic effect in maltose treated mouse C57BL-6J assessed as reduction in postprandial blood glucose level at 0.5 mg/kg, po measured after 15 mins. It counts as functional. Further details: scale not given: the % may be the effect or the level left. Conditions: 0.25 h.
Series [5] can be described thus: Inhibition of Aspergillus niger alpha-glucosidase by Lineweaver-Burk plot.
Series [6] in a line: (§1) Inhibition of mammalian Alpha-glucosidase (unknown origin) using PNPG as substrate pretreated for 20 mins followed by substrate addition measured after 26 mins.
The species entered for a further series is Homo sapiens. The series is described as §1.
A short description of series [7]: Toxicity in C57BL-6J mouse assessed as lung pathological change at 2 mg/kg, po measured after 10 days by hematoxylin and eosin staining analysis. It counts as organism-based. Conditions: in vivo, 240 h, time 10 day.
Series [8] can be described thus: Stability of the compound in pH 2 by UV-vis spectroscopy. In kind it is physicochemical. Conditions: buffer.
Series [9] in a line: Inhibition of green coffee beans alpha-galactosidase. Further details: species or system Coffea arabica.
The nature of series [10]: Inhibition of Escherichia coli beta-galactosidase.
Series [11] deals with Aspergillus niger. The series is described as follows: Potency index, ratio of DNJ-1 Kd to test compound Kd for inhibition of Aspergillus niger alpha-glucosidase.
Series [12] concerns the target T1, Alpha-mannosidase (Canavalia ensiformis) (UniProt C0HJB3).
T1 sequence (whole entry): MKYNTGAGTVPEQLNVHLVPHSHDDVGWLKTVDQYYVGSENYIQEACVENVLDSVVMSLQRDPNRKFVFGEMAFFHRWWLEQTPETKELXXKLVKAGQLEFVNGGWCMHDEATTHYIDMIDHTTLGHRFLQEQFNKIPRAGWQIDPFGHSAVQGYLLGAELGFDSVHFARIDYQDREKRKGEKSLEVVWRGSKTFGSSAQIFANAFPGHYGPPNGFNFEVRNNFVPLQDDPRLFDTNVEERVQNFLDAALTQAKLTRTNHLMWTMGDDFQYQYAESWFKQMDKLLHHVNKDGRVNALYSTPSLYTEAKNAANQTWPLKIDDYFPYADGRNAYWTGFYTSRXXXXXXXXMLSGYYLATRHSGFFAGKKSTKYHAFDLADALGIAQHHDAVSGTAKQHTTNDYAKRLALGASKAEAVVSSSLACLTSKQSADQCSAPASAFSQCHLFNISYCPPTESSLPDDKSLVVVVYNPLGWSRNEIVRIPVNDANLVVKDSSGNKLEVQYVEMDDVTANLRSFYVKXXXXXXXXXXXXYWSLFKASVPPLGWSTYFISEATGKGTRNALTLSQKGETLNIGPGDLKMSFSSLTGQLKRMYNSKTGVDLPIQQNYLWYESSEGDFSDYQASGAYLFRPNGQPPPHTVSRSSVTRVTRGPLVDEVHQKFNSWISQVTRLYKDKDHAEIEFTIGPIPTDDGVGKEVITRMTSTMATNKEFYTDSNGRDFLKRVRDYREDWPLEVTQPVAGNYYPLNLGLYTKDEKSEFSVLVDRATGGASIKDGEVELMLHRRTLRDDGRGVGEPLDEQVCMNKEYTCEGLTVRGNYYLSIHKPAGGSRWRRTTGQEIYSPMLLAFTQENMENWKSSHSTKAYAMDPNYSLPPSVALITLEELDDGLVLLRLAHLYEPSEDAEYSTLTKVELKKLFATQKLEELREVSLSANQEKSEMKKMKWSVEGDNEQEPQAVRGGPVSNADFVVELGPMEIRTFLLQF
The series is described as follows: Potency index, ratio of DNJ-1 Kd to test compound Kd for inhibition of Jack bean alpha-mannosidase.

A short description of series [13]: Inhibition of Helix pomatia beta-mannosidase.
Series [14] can be described thus: Inhibition of Green coffee beans alpha-galactosidase by Lineweaver-Burk plot. Further details: species or system Coffea arabica.
Series [15] concerns Mus musculus. The series can be described thus: Hypoglycemic effect in maltose treated po dosed C57BL-6J mouse assessed as reduction in postprandial blood glucose level measured upto 180 mins. It counts as functional, organism-based. Conditions: time min <=180.
In series [16] the test system is Mus musculus. The series is described as follows: Hypoglycemic effect in maltose treated mouse C57BL-6J assessed as reduction in postprandial blood glucose level at 2 mg/kg, po measured after 15 mins. In kind it is functional. Also noted: scale not given: the % may be the effect or the level left. Conditions: 0.25 h.
Series [17] in a line: Toxicity in C57BL-6J mouse assessed as heart pathological change at 2 mg/kg, po measured after 10 days by hematoxylin and eosin staining analysis. Conditions: in vivo, 240 h, time 10 day. It counts as organism-based.
The target of series [18] is T2, Alpha-mannosidase (Canavalia ensiformis, UniProt C0HJB3).
T2 sequence (C0HJB3 whole entry): T1 sequence (whole entry)
The series can be described thus: Inhibition of jack bean alpha-mannosidase.

Series [19] is described as follows: Toxicity in C57BL-6J mouse assessed as spleen pathological change at 2 mg/kg, po measured after 10 days by hematoxylin and eosin staining analysis. It counts as organism-based. Conditions: in vivo, 240 h, time 10 day.
Series [20] can be described thus: Toxicity in C57BL-6J mouse assessed as increase in body weight at 2 mg/kg, po measured upto 30 days. It counts as organism-based. Conditions: in vivo, 720 h, time <=30 day.
Series [21] addresses T1, Alpha-mannosidase (Canavalia ensiformis). The series can be described thus: Potency index, ratio of miglitol Kd to test compound Kd for inhibition of Jack bean alpha-mannosidase.
Series [22] in a line: Toxicity in C57BL-6J mouse assessed as liver pathological change at 2 mg/kg, po measured after 10 days by hematoxylin and eosin staining analysis. In kind it is organism-based. Conditions: in vivo, 240 h, time 10 day.
A short description of series [23]: Toxicity in C57BL-6J mouse assessed as increase in body weight at 2 mg/kg, po measured after 10 days. It counts as organism-based. Conditions: in vivo, 240 h, time 10 day.
Series [24] has as its target T2, Alpha-mannosidase. The series can be described thus: Inhibition of Jack bean alpha-mannosidase by Lineweaver-Burk plot.
Series [25] relates to Mus musculus. The series is described as follows: Hypoglycemic effect in maltose treated mouse C57BL-6J assessed as reduction in postprandial blood glucose level at 1 mg/kg, po measured after 15 mins. In kind it is functional. Also noted: scale not given: the % may be the effect or the level left. Conditions: 0.25 h.
For series [26], the system named is Aspergillus niger. The series is described as follows: Potency index, ratio of miglitol Kd to test compound Kd for inhibition of Aspergillus niger alpha-glucosidase.
The nature of series [27]: Inhibition of Aspergillus niger alpha-glucosidase.
The subject of series [28] is Mus musculus. The series can be described thus: Hypoglycemic effect in maltose treated C57BL-6J mouse assessed as reduction in postprandial blood glucose level at 2 mg/kg, po measured after 30 mins. It counts as functional. Conditions: 0.5 h. Also noted: scale not given: the % may be the effect or the level left.
The subject of series [29] is Mus musculus. The series can be described thus: Hypoglycemic effect in maltose treated mouse C57BL-6J assessed as reduction in postprandial blood glucose level at 0.5 mg/kg, po measured after 30 mins. Also noted: scale not given: the % may be the effect or the level left. In kind it is functional.
The test system of series [30] is Mus musculus. The series is described as follows: Hypoglycemic effect in maltose treated mouse C57BL-6J assessed as reduction in postprandial blood glucose level at 1 mg/kg, po measured after 30 mins. In kind it is functional. Further details: scale not given: the % may be the effect or the level left. Conditions: 0.5 h.

In general, Kd refers to the constant that tells how readily two partners part at equilibrium. In general, Ki refers to the dissociation constant of the complex between target and ligand, obtained from inhibition or displacement. The IC50 is the point on the concentration scale where inhibition reaches its midpoint. For `O=C1c2cc(Cl)c3c4c(Cl)cc5c6c(cc(Oc7ccc(OCc8cn(CCCN9C[C@H](O)[C@@H](O)[C@H](O)[C@H]9CO)nn8)cc7)c(c7c(Oc8ccc(OCc9cn(CCCN%10C[C@H](O)[C@@H](O)[C@H](O)[C@H]%10CO)nn9)cc8)cc(c2c37)C(=O)N1Cc1cn(CCCN2C[C@H](O)[C@@H](O)[C@H](O)[C@H]2CO)nn1)c64)C(=O)N(Cc1cn(CCCN2C[C@H](O)[C@@H](O)[C@H](O)[C@H]2CO)nn1)C5=O`, the Stability result in [1] and in series [8] was “Stable” each time. The Kd result in series [2] was “Not Active”; in series [9] (read-out: Kd), 1.93 µM; in [10], “Not Active”; in [13], “Not Active”; at Alpha-mannosidase [18], 0.017 µM; in [27] it was 14.7 µM. The Ratio in the series on Coffea arabica was 7.2; in the series with Aspergillus niger [11], 4.2; in series [12], 16300; in series [21], 6180; in the series with Aspergillus niger [26] it was 1.4. Further, the Activity entry was “Non-Toxic” in series [3]; 4% in the series on Mus musculus [4]; “Non-Toxic” in series [7]; “Dose-Dependent Effect” in the series with Mus musculus [15]; 22.2% with Mus musculus [16]; “Non-Toxic” in series [17]. Besides, the Activity result in [19] is given as “Non-Toxic”; in series [20] it was “Toxic”; in series [22] it was “Non-Toxic”; in series [23] it was “Non-Toxic”; in the series with Mus musculus [25] it was 11.3%. Besides, the inhibitory constant (Ki) in series [5] amounted to 14.7 µM; in series [14], 1.03 µM; at Alpha-mannosidase [24], 0.017 µM. In series [6], the IC50 was 14.4 µM. Besides, the inhibition result in the series listed under Homo sapiens was “Dose-Dependent Effect”.

`OCc1cn(CCCN2C[C@H](O)[C@@H](O)[C@H](O)[C@H]2CO)nn1`: the Kd entry in series [2] is “Not Active”; in [9] it was “Not Active”; in [10], “Not Active”; in [13] it was “Not Active”; on Alpha-mannosidase [18], 277 µM; in [27] it was 61.6 µM.

As for `OCCN1C[C@H](O)[C@@H](O)[C@H](O)[C@H]1CO` [MIGLITOL], the Kd entry in [2] is “Not Active”; in [9], “Not Active”; in series [10], “Not Active”; in [13], “Not Active”; in [27], 20.6 µM. For the same compound, the Activity worked out at 36.6% in the series on Mus musculus [28], 40.4% in the series with Mus musculus [16] and 27.3% with Mus musculus [25].

Consider `O=C1c2cc(Cl)c3c4c(Oc5ccc(OCc6cn(CCCN7C[C@H](O)[C@@H](O)[C@H](O)[C@H]7CO)nn6)cc5)cc5c6c(cc(Oc7ccc(OCc8cn(CCCN9C[C@H](O)[C@@H](O)[C@H](O)[C@H]9CO)nn8)cc7)c(c7c(Cl)cc(c2c37)C(=O)N1Cc1cn(CCCN2C[C@H](O)[C@@H](O)[C@H](O)[C@H]2CO)nn1)c64)C(=O)N(Cc1cn(CCCN2C[C@H](O)[C@@H](O)[C@H](O)[C@H]2CO)nn1)C5=O`, for which the Stability entry in series [1] and in series [8] was “Stable” throughout. The dissociation constant (Kd) entry is “Not Active” in series [2]; 1.43 µM in series [9] (read-out: Kd); “Not Active” in series [10]; “Not Active” in [13]; 0.12 µM on Alpha-mannosidase [18]; 13.1 µM in series [27]. Further, the Ratio with Coffea arabica is 9.7; in the series with Aspergillus niger [11], 4.7; in series [12], 2310; in series [21] it was 876; in the series on Aspergillus niger [26] it was 1.5. Moreover, the Activity result in series [3] was “Non-Toxic”; with Mus musculus [4] it was 22.4%; with Mus musculus [29], 15.2%; in series [7] it was “Non-Toxic”; in the series on Mus musculus [15] it was “Dose-Dependent Effect”; in the series with Mus musculus [28] it was 37.4%. For the same compound, the Activity in the series on Mus musculus [16] was 41.3%; in [17] it was “Non-Toxic”; in series [19] it was “Non-Toxic”; in [20], “Toxic”; in [22] it was “Non-Toxic”; in [23], “Non-Toxic”. Further, the Activity with Mus musculus [30] came to 20.8%; in the series with Mus musculus [25], 29.2%. For the same compound, the results for the inhibition constant (Ki) (in [5]; in [14]; at Alpha-mannosidase [24]) were 13.1 µM, 1.43 µM and 0.12 µM, respectively. In addition, in series [6], the IC50 amounted to 11.6 µM. Besides, in the series listed under Homo sapiens, the inhibition entry is “Dose-Dependent Effect”.

The values above are taken from ChEMBL document CHEMBL5029144, “Positional Isomeric Effects on the Optical Properties, Multivalent Glycosidase Inhibition Effect, and Hypoglycemic Effect of Perylene Bisimide-deoxynojirimycin Conjugates” (J Med Chem, 2021).
